Measured values from paper PMC11187126, “Structure and dynamics of the pyroglutamylated RF-amide peptide QRFP receptor GPR103” (Nature Communications, 2024).
Like-named read-outs stand apart in the source and are kept apart here. No end group written: not given here.

Molecular target: T1, GPR103 Y214^5.38A (Homo sapiens, UniProt Q96P65, Y214A)
T1 construct: we used human full-length QRFPR-encoding plasmids; expressed in transfected cells; host or cells: HEK293 cells, pCAGGS vector
T1 sequence (Q96P65 1-431 Y214A): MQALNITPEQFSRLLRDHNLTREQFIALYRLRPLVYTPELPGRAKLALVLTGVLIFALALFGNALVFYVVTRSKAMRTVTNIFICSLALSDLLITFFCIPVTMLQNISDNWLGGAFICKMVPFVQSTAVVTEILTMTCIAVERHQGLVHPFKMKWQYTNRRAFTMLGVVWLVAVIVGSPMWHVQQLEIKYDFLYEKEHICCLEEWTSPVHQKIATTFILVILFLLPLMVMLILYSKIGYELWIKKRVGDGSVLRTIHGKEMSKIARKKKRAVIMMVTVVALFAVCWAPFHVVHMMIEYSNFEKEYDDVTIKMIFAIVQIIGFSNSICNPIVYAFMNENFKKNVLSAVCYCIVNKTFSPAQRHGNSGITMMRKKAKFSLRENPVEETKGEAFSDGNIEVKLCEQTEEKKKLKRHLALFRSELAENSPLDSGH
Test: TGFα shedding assay; Exp. level WT (1:50)
Format: cell-based
Method: For the TGFα shedding assay and the flow cytometry analysis, we used human full-length QRFPR-encoding plasmids. Specifically, GPR103 was N-terminally modified with an HA signal sequence followed by a FLAG epitope and then a flexible linker ([…]; the FLAG epitope is underlined) and inserted into the pCAGGS vector. Plasmid encoding GPR103 mutants were generated using Quickchange Site-Directed Mutagensis kit (Agilent).
The TGFα shedding assay was performed as described previously with minor modifications. Plasmid transfection was performed in a 6-well plate with a mixture of 500 ng (per well in a 6-well plate) AP-TGFα-encoding plasmid and 200 ng GPR103-encoding plasmid. After 1-day culture, the transfected cells were harvested by trypsinization, pelleted by centrifugation at 190 × g for 5 min, and washed once with 5 mM HEPES (pH 7.4)-containing Hank’s Balanced Salt Solution (HBSS). After centrifugation, the cells were resuspended in 8 mL of the HEPES-containing HBSS. The cell suspension was seeded in a 96-well culture plate (cell plate) at a volume of 90 μL (per well hereafter) and incubated in a 37 °C incubator with 5% CO2 for 30 min. […] After spinning the cell plates at 190 × g for 2 min, 80 μL of conditioned media was transferred to an empty 96-well plate (conditioned media (CM) plate). Then, 80 μL of AP reaction solution (10 mM p-nitrophenylphosphate (p-NPP), 120 mM Tris-HCl (pH 9.5), 40 mM NaCl, and 10 mM MgCl2) was dispensed into the cell plates and the CM plates. Absorbance at 405 nm of the plates was measured using a microplate reader (SpectraMax 340 PC384, Molecular Devices) before and after 1-h incubation at room temperature. Ligand-induced AP-TGFα release was calculated by subtracting spontaneous AP-TGFα release signal from ligand-induced AP-TGFα release signal. The AP-TGFα release signals were fitted to a four-parameter sigmoidal concentration–response curve, using the Prism 10 software (GraphPad Prism). For each replicate experiment, the pEC50 parameter (negative logarithmic values of EC50 values) of the individual GPR103 mutants were normalized to that of the wild-type GPR103 performed in parallel, and resulting ∆pEC50 values were used to denote ligand response activity of the mutants. […]
Exp. le vel: WT (1:5 0)Exp. le vel: WT (1:5 0)Exp. le vel: WT (1:5 0)Exp. le vel: WT (1:2 0)Exp. le vel: WT (1:2 0)Exp. le vel: WT (1:1 0) […]
L1 4N - t e r mA F2 5N - t e r mA I 2 6N - t e r mA Y 2 9N - t e r mA C 9 82 .5 7A T10 22 .6 1A Exp . l eve l: WT (1 :5)Exp . l evel : >WT (1 :1)Exp. le vel: WT (1:2 0)Exp. le vel: WT (1:2 0)Exp. le vel: WT (1:5 0)Exp . l eve l: WT (1 :1) […]
Exp. le vel: WT (1:1 0)Exp. le vel: WT (1:2 0) C 1 1 83 .2 5AExp. le vel: WT (1:5 0)Exp. le vel: WT (1:5 0)Exp. le vel: WT (1:2 0)Exp . l eve l: WT (1 :5) […]
Exp. le vel: WT (1:5 0)Exp. le vel: WT (1:1 0)Exp. le vel: WT (1:5 0) E203ECL2AExp . l evel : >WT (1 :1)Exp. le vel: WT (1:5 0)Exp. le vel: WT (1:5 0) […]
Exp . l eve l: WT (1 :1) F28Exp. le vel: WT (1:5 0) C 2 8 56 .4 7AExp. le vel: WT (1:2 0) WExp. le vel: WT (1:2 0) F28Exp. le vel: WT (1:5 0)Exp . l evel : >WT (1 :1) […]
Exp. le vel: WT (1:5 0)Exp. le vel: WT (1:5 0) C 3 2 77 .4 8AExp . l eve l: WT (1 :5)Exp . l evel : >WT (1 :1)Exp . l evel : >WT (1 :1) […]
Suppl eme nt ary Figure 1 | Mutational analysis of GPR103. […]
mutants. Data are presented as mean values ± SEM, normally n=3-5; dots), each performed in triplicate. b-d Cell-surface expression (b) and QRFP26-in-duced activation of GPR103 (c, d) were analyzed by the flow cytometry and the TGFα shedding assay, respectively. From the concentration–response curves (a), Emax (c) and ΔpEC50 (d) values relative to the wild type were calculated. Colors in the mutant bars indicate an expression level matching to that of titrated wild type. Statistical analyses were performed using the ordinary one-way ANOVA followed by Dunnett tests with the expression-matched […]

Emax (Exp. #1): 18.32 % WT | Emax (Exp. #2): 10.80 % WT | Emax (Exp. #3): 19.27 % WT | Emax (mean, read-out: Emax): 16.1% | EC50 (n = 3): 105 nM | Emax (n = 3, read-out: Emax): 16.6 ± 2.2%
Substance: TSGPLGNLAEELNGYSRKKGGFSFRF-NH2 [QRFP26]
